Reference: PubChem BioAssay AID1117351
Calls of active or inactive are those of the source. No rule for the calls is given here.

Tested on: HeLa cells, 4N DNA content increase
Assay: HeLa 4N DNA content increase, dose response, cell-based, IC50 (AID 1117351)

Compound	IC50
CCCCCCCCCCCCCC[N+](C)(C)C	> 10 µM (inactive)
C[n+]1c2cc(N)ccc2cc2ccc(N)cc21 (tested in a mixture with another compound)	> 10 µM (inactive)
CCCCCCCCCCCC(=O)[O][Sn]([CH2]CCC)([CH2]CCC)[O]C(=O)CCCCCCCCCCC	> 10 µM (inactive)
Cc1ccc([N+](=O)[O-])[c]2c1[O][Hg]2	> 10 µM (inactive)
